Measurements published in PMC7797783, “Identification of Active Compounds From Yi Nationality Herbal Formula Wosi Influencing COX-2 and VCAM-1 Signaling” (Frontiers in Pharmacology, 2020).
Values joined by “and” are separate entries in the source; they are usually repeats but may differ in a detail not shown here. Identical values can stand only once.

Tests used:
COX-2 = biological target: T1, COX-2 (Homo sapiens, UniProt P35354); experiment: In vitro cyclooxygenase inhibition assay (colorimetric COX inhibitor screening kit, PGE2 synthesis), COX-2; format: biochemical; details: for IC50: duplicate determinations, 0.01 to 550 μM; for COX-2/COX-1 selectivity ratio: ratio of IC50 values (μM)
T1 construct: purchased Cayman Chemical Company 560131
T1 sequence (P35354 18-604): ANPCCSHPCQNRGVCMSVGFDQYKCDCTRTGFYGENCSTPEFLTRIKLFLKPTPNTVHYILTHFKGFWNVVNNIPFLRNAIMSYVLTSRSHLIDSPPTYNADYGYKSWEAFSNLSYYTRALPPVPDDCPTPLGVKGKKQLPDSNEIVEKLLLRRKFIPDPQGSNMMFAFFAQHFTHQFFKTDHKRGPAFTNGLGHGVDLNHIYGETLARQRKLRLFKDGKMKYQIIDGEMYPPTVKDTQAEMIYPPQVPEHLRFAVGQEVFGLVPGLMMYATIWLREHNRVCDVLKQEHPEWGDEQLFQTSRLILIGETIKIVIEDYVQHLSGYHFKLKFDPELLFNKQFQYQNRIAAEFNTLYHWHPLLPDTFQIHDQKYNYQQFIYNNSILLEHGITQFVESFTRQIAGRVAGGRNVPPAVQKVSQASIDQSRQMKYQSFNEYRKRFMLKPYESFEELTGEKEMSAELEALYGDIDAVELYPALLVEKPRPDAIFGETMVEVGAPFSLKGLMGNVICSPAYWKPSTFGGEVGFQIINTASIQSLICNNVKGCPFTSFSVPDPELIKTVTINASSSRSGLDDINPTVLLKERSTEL

COX-1 = biological target: T2, COX-1 (Ovis aries, UniProt P05979); experiment: In vitro cyclooxygenase inhibition assay (colorimetric COX inhibitor screening kit, PGE2 synthesis), COX-1; format: biochemical; details: duplicate determinations; 0.01 to 550 μM
T2 construct: purchased Cayman Chemical Company 560131
T2 sequence (P05979 25-600): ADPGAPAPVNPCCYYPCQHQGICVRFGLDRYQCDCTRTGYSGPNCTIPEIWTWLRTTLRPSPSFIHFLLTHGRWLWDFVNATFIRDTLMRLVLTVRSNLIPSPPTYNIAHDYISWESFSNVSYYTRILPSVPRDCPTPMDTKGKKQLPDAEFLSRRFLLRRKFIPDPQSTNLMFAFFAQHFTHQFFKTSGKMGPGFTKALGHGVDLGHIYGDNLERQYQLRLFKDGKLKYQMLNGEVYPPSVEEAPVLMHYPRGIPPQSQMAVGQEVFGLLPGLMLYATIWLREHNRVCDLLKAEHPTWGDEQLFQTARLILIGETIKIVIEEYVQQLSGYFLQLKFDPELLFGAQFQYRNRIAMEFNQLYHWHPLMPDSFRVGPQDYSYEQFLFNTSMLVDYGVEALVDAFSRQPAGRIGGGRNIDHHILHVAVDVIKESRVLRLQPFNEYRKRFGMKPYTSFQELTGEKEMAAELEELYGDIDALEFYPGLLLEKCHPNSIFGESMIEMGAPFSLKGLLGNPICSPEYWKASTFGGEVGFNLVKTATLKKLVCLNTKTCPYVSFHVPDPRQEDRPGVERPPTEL

[1] = tested on: serum cytokines IL-6, IL-1β, IL-2, IL-10, IFN-γ; experiment: Serum inflammatory cytokines (ELISA) in MSU-induced rats; format: in vivo, Sprague-Dawley (SD) rats; details: oral 7 days, Wosi 0.5, 1, 2 g/kg, colchicine 0.2 mg/kg
Description: (§1) Rats were divided as aforementioned. Wosi at three doses (0.5, 1, and 2 g/kg) were orally administration once daily for 7 days in Wosi groups. Meanwhile, colchicine was orally administration once daily for 7 days in colchicine groups. The injection of the MSU crystal was performed on the fifth day for each animal except those of control groups. 0.9% sterile saline was given to the control group. On the seventh day, rats were first anesthetized with pentobarbital sodium (i.p., 70 mg/kg body weight) at 30 min after the last dosing, Blood samples were taken from rat femoral artery with heparinized needles which were allowed to clot for 1 h at room temperature and centrifuged at 3,000 g for 10 min to obtain serum. Serum samples were stored at −20°C until the ELISA testing, then rats were sacrificed by femoral artery exsanguination. Meanwhile, the ankle joint surrounding tissues were collected for the immunohistochemical analyze and frozen at −80°C.
The levels of interleukin 6 (IL-6), interleukin 1 beta, interleukin 2 (IL-2), interleukin 10 (IL-10), and interferon gamma (IFN-γ) in the serum were measured using ELISA kits according to manufacturer’s instructions.

[2] = tested on: COX-2 and VCAM-1 protein expression; experiment: Immunohistochemistry of COX-2 and VCAM-1 protein in ankle joint synovial tissue of MSU-induced rats; format: in vivo, Sprague-Dawley (SD) rats; details: 7 days, colchicine 0.2 mg/kg
Description: as §1
The method of immunohistochemical staining for the ankle joint was as following the previous studies. Briefly, the sections were deparaffinized and […] by xylene and ethanol. […] Finally, the sections were washed with TBS three times, and antibody binding was detected using 3,3′-diaminobenzidine tetrahydrochloride (DAB). […] Stained sections were dehydrated and then each section was analyzed by microscope and image output system.

cyclooxygenase-2 = tested on: cyclooxygenase-2; design: method as in Ringbom et al., 1998; details: ref Ringbom et al., 1998; cited from earlier work
hyperuricemia rats = experiment: Hyperuricemia rat model (adenine/dry yeast), uric acid in serum and urine; format: in vivo, Sprague-Dawley (SD) rats; details: oral, 5 days, Wosi 0.5, 1, 2 g/kg, vs model group
Description: The rats were divided into six groups, and each group comprised of 10 animals which were control, model, Benzbromarone (0.01 mg/kg), Wosi (0.5, 1, and 2 g/kg) groups. Briefly, 10% dry yeast solution of 1.25% adenine (10 ml/kg) was given orally administration for 15 consecutive days to induce the hyperuricemia in each animal except those of control groups. The solution of 0.5% CMC-Na was given to the control groups. On the 10th day, the Wosi and Benzbromarone were orally administered continuously 24 h 5 days. Normal saline was given to the control and model groups. Collecting 14th and 15th days of rat urine (24 h) and recording the volume. It was centrifuged at 3,500 g for 5 min to remove the precipitations. On the 15th day, rats were first anesthetized with pentobarbital sodium (i.p., 70 mg/kg body weight), 1 h after the final drug treatment. Then the blood sample was collected and centrifuged at 3000 g for 5 min to obtain the serum. Serum were kept under −20°C.
According to manufacturer’s instructions, using a standard diagnostic kit, was used in order to evaluate the concentration of uric acid concentration in serum and urine.

C[C@@H]1O[C@@H](O[C@@H]2[C@@H](O)[C@H](O[C@H]3CC[C@]4(C)[C@H]5CC=C6[C@@H]7CC(C)(C)CC[C@]7(C(=O)O[C@@H]7O[C@H](CO)[C@@H](O)[C@H](O)[C@H]7O)CC[C@@]6(C)[C@]5(C)CC[C@H]4C3(C)C)O[C@H](C(=O)O)[C@H]2O)[C@H](O)[C@H](O)[C@H]1O [Compound c, 3-O-[α-L-pyranrhamnose(1-3)-β-D-pyranglucuronic acid]-oleanolic acid-28-O-β-D-pyran glucoside]
IC50 (COX-2): 384 µM and 349 µM | COX-2/COX-1 selectivity ratio (COX-2): 0.65 and 0.64 | IC50 (COX-1): 538 µM

COc1cc2c(c(OC)c1OC)-c1ccc(OC)c(=O)cc1[C@@H](NC(C)=O)CC2 [colchicine, Colchicine]
serum level of IFN-γ [1]: inhibited IL-2, IL-1β, IL-6, and IFN-γ secretion | serum level of IL-1β [1]: inhibited IL-2, IL-1β, IL-6, and IFN-γ secretion | serum level of IL-2 [1]: inhibited IL-2, IL-1β, IL-6, and IFN-γ secretion | serum level of IL-6 [1]: inhibited IL-2, IL-1β, IL-6, and IFN-γ secretion | serum level of IL-10 [1]: increased IL-10 secretion | protein expression of VCAM-1 in synovial tissue (IHC, IOD) ([2]; Wosi 0.5, 1, 2 g/kg): recovered to that of the normal animals | protein expression of COX-2 in synovial tissue (IHC, IOD) ([2]; Wosi particularly at 0.5 and 2 g/kg/day): recovered to that of the normal animals

CC1(C)CC[C@]2(C(=O)O)CC[C@]3(C)C(=CC[C@@H]4[C@@]5(C)CC[C@H](O)C(C)(C)[C@@H]5CC[C@]43C)[C@@H]2C1 [oleanolic acid]
selectivity of inhibition of cyclooxygenase-2 catalyzed prostaglandin biosynthesis (cyclooxygenase-2): selective inhibitors of cyclooxygenase-2 catalyzed prostaglandin biosynthesis

CC1(C)CC[C@]2(C(=O)O[C@@H]3O[C@H](CO)[C@@H](O)[C@H](O)[C@H]3O)CC[C@]3(C)C(=CC[C@@H]4[C@@]5(C)CC[C@H](O[C@@H]6O[C@H](C(=O)O)[C@@H](O)[C@H](O)[C@H]6O)C(C)(C)[C@@H]5CC[C@]43C)[C@@H]2C1 [Compound b, 3-O-(β-D-pyranglucuronic acid)-oleanolic acid-28-O-β-D-pyran glucoside]
IC50 (COX-2): 294 µM | COX-2/COX-1 selectivity ratio (COX-2): 0.60 | IC50 (COX-1): 488 µM

C[C@H]1[C@H](C)CC[C@]2(C(=O)O)CC[C@]3(C)C(=CC[C@@H]4[C@@]5(C)CC[C@H](O)C(C)(C)[C@@H]5CC[C@]43C)[C@H]12 [ursolic acid]
selectivity of inhibition of cyclooxygenase-2 catalyzed prostaglandin biosynthesis (cyclooxygenase-2): selective inhibitors of cyclooxygenase-2 catalyzed prostaglandin biosynthesis

C[C@@H]1O[C@@H](O[C@@H]2[C@@H](O)[C@H](O[C@H]3CC[C@]4(C)[C@H]5CC=C6[C@@H]7CC(C)(C)CC[C@]7(C(=O)O)CC[C@@]6(C)[C@]5(C)CC[C@H]4C3(C)C)O[C@H](C(=O)O)[C@H]2O)[C@H](O)[C@H](O)[C@H]1O [Compound a, 3-O-[α-L-pyranrhamnose(1-3)-β-D-pyranglucuronic acid]-oleanolic acid]
IC50 (COX-2): 298 µM | COX-2/COX-1 selectivity ratio (COX-2): 0.67 | IC50 (COX-1): 443 µM

CCc1oc2ccccc2c1C(=O)c1cc(Br)c(O)c(Br)c1 [benzbromarone, Benzbromarone]
serum level of uric acid (hyperuricemia rats): recovered to that of the normal animals | urine uric acid excretion (24 h) (hyperuricemia rats): recovered to that of the normal animals
